Common to all, as to test: In vitro antibacterial activity, MIC by agar dilution method
Holding throughout (type): cell-based

In one experiment the test system is E. coli DC 2. To be noted: Escherichia coli, DC2, read-out: In vitro Antibacterial Activity, MIC. Here is the method: (§1) The typical examples of the present compounds were tested for antimicrobial activity in vitro against twenty strains of Gram-positive and Gram-negative microorganisms.
(§2) The numerals in the table 1 show minimum inhibitory concentrations(MIC in µg/ml). The minimum inhibitory concentrations were determined according to the agar dilution method recommended by Japan Society of Chemotherapy[Chemotherapy., 29, 76 (1981)].

The next experiment deals with S. pyogenes A 77. Conditions: Streptococcus pyogenes, A77, read-out: In vitro Antibacterial Activity, MIC. How it is done:
as §1, §2

In another experiment the test system is S. aureus SG 511. To be noted: Staphylococcus aureus, SG511, read-out: In vitro Antibacterial Activity, MIC. Here is the method:
as §1, §2

The next experiment relates to P. aeruginosa 1771. To be noted: Pseudomonas aeruginosa, 1771, read-out: In vitro Antibacterial Activity, MIC. Here is the method: as §1, §2
Another experiment relates to S. aureus 503. To be noted: Staphylococcus aureus, 503, read-out: In vitro Antibacterial Activity, MIC. Here is the method:
as §1, §2

The subject of the next experiment is P. aeruginosa 1592E. To be noted: Pseudomonas aeruginosa, 1592E, read-out: In vitro Antibacterial Activity, MIC. Here is the method:
as §1, §2

The test system of the next experiment is S. aureus 285. Conditions: Staphylococcus aureus, 285, read-out: In vitro Antibacterial Activity, MIC. Here is the method:
as §1, §2

Another experiment concerns K. oxytoca 1082E. To be noted: Klebsiella oxytoca, 1082E, read-out: In vitro Antibacterial Activity, MIC. How it is done:
as §1, §2

The test system of another experiment is E. coli DC 0. To be noted: Escherichia coli, DC0, read-out: In vitro Antibacterial Activity, MIC. Here is the method:
as §1, §2

The test system of another experiment is E. coli 1507E. Conditions: Escherichia coli, 1507E, read-out: In vitro Antibacterial Activity, MIC. How it is done:
as §1, §2

For the next experiment, the system named is P. aeruginosa 1771M. To be noted: Pseudomonas aeruginosa, 1771M, read-out: In vitro Antibacterial Activity, MIC. How it is done:
as §1, §2

The test system of a further experiment is S. pyogenes A 308. To be noted: Streptococcus pyogenes, A308, read-out: In vitro Antibacterial Activity, MIC. Here is the method: as §1, §2
Another experiment relates to E. coli TEM. Conditions: Escherichia coli, read-out: In vitro Antibacterial Activity, MIC. Here is the method: as §1, §2
Another experiment relates to S. faecium MD 86. Conditions: Enterococcus faecium, MD86, read-out: In vitro Antibacterial Activity, MIC. Here is the method:
as §1, §2

In a further experiment the test system is P. aeruginosa 9027. To be noted: Pseudomonas aeruginosa, 9027, read-out: In vitro Antibacterial Activity, MIC. Here is the method: as §1, §2
In another experiment the test system is S. typhimurium. Conditions: Salmonella enterica, TYPHIMURIUM, read-out: In vitro Antibacterial Activity, MIC. Here is the method:
as §1
(§3) The minimum inhibitory concentrations were determined according to the agar dilution method recommended by Japan Society of Chemotherapy[Chemotherapy., 29, 76 (1981)].

Another experiment deals with E. coli O 55. Conditions: Escherichia coli, O55, read-out: In vitro Antibacterial Activity, MIC. How it is done:
as §1, §3

The next experiment concerns K. aerogenes 1522E. Conditions: Klebsiella aerogenes, 1522E, read-out: In vitro Antibacterial Activity, MIC. How it is done:
as §1, §3

In a further experiment the test system is E. cloacae 1321E. Conditions: Enterobacter cloacae, 1321E, read-out: In vitro Antibacterial Activity, MIC. How it is done: as §1, §3
Another experiment deals with E. cloacae P99. To be noted: Enterobacter cloacae, P99, read-out: In vitro Antibacterial Activity, MIC. Here is the method: as §1, §3

Two compounds from patent EP0500835B1, “A NOVEL QUINOLONE CARBOXYLIC ACID DERIVATIVE” (DAEWOONG PHARMACEUTICAL CO., LTD., priority 1990, dated 1992) can be followed below.

The structures appear in SMILES notation. In brackets after ≈: the same amount, converted by molar mass.

The term MIC denotes the lowest concentration found to suppress growth. In the case of `CSCC1CCN(c2cc3c(cc2F)c(=O)c(C(=O)O)cn3C2CC2)C1` (stereo not shown) [Example 1, 1-cyclopropyl-6-fluoro-7-(3-methylthiomethylpyrrolidinyl)-1,4-dihydro-4-oxo-3-quinolinecarboxylic acid], the MIC in the experiment on E. coli DC 2 is 0.781 µg/mL (≈ 2.07 µM); with S. pyogenes A 77 it was 0.781 µg/mL (≈ 2.07 µM); with S. aureus SG 511, 0.025 µg/mL (≈ 0.0664 µM); in the experiment on P. aeruginosa 1771 it was 0.781 µg/mL (≈ 2.07 µM); with S. aureus 503, 0.025 µg/mL (≈ 0.0664 µM); in the experiment on P. aeruginosa 1592E, 1.56 µg/mL (≈ 4.15 µM). For the same compound, the MIC in the experiment with S. aureus 285 came to 0.025 µg/mL (≈ 0.0664 µM); with K. oxytoca 1082E, 0.098 µg/mL (≈ 0.26 µM); with E. coli DC 0, 3.12 µg/mL (≈ 8.3 µM); with E. coli 1507E, 1.56 µg/mL (≈ 4.15 µM); with P. aeruginosa 1771M, 0.391 µg/mL (≈ 1.04 µM); in the experiment with S. pyogenes A 308, 1.56 µg/mL (≈ 4.15 µM). Further, the MIC in the experiment with E. coli TEM was determined as 0.391 µg/mL (≈ 1.04 µM); in the experiment on S. faecium MD 86, 0.781 µg/mL (≈ 2.07 µM); with P. aeruginosa 9027, 1.56 µg/mL (≈ 4.15 µM); in the experiment on S. typhimurium it was 0.195 µg/mL (≈ 0.518 µM); in the experiment with E. coli O 55, 0.025 µg/mL (≈ 0.0664 µM); in the experiment with K. aerogenes 1522E, 0.391 µg/mL (≈ 1.04 µM). Besides, the MIC with E. cloacae 1321E and in the experiment on E. cloacae P99 was 0.195 µg/mL (≈ 0.518 µM) each time.
Take `CSCC1CCN(c2c(F)c(F)c3c(=O)c(C(=O)O)cn(C4CC4)c3c2F)C1` (stereo not shown) [Example 3, 1-cyclpropyl-5,6,8-trifluoro-7-(3-methylthiomethylpyrrolidinyl)-1,4-dihydro-4-oxo-3-quinolinecarboxylic acid]: the minimum inhibitory concentration (MIC) was determined as 3.12 µg/mL (≈ 7.58 µM) with E. coli DC 2; 1.56 µg/mL (≈ 3.79 µM) in the experiment with S. pyogenes A 77; 0.008 µg/mL (≈ 0.0194 µM) in the experiment on S. aureus SG 511; 1.56 µg/mL (≈ 3.79 µM) in the experiment with P. aeruginosa 1771; 0.007 µg/mL (≈ 0.017 µM) in the experiment on S. aureus 503; 3.12 µg/mL (≈ 7.58 µM) in the experiment with P. aeruginosa 1592E. Further, the MIC stood at 0.013 µg/mL (≈ 0.0315 µM) in the experiment on S. aureus 285; 0.098 µg/mL (≈ 0.238 µM) with K. oxytoca 1082E; 6.25 µg/mL (≈ 15.2 µM) in the experiment on E. coli DC 0; 3.12 µg/mL (≈ 7.58 µM) with E. coli 1507E; 1.56 µg/mL (≈ 3.79 µM) in the experiment on P. aeruginosa 1771M; 0.781 µg/mL (≈ 1.89 µM) with S. pyogenes A 308. Moreover, the MIC in the experiment with E. coli TEM came to 3.12 µg/mL (≈ 7.58 µM); with S. faecium MD 86, 0.781 µg/mL (≈ 1.89 µM); in the experiment with P. aeruginosa 9027, 3.12 µg/mL (≈ 7.58 µM); in the experiment on S. typhimurium, 0.391 µg/mL (≈ 0.948 µM); in the experiment on E. coli O 55 it was 0.195 µg/mL (≈ 0.473 µM); with K. aerogenes 1522E it was 0.781 µg/mL (≈ 1.89 µM). Moreover, the MIC in the experiment with E. cloacae 1321E and with E. cloacae P99 was 0.391 µg/mL (≈ 0.948 µM) throughout.
